Source: patent US20100056568A1, “Cycloalkylamine substituted isoquinolone and isoquinolinone derivatives” (sanofi-aventis, priority 2006, published 2010)
Structures can show the parent of a compound that is named as a salt.

Target: T1, human recombinant ROCK II (Homo sapiens, UniProt O75116)
T1 construct: recombinant human ROCK-II residues 11-552; His6 (N); purchased Upstate Ltd., Dundee, UK
Assay: Determination of Rho kinase inhibition (Caliper peptide phosphorylation assay)
Type: biochemical
Details: negative decadal logarithm of the IC50; ROCK II residues 11-552, fluorescein peptide substrate, 60 min at 32° C.; tested as salt or free base obtained in the examples
Experimental: To measure Rho-kinase inhibition, IC50 values were determined according to the following protocol:
Active human recombinant ROCK II (N-terminal His6-tagged recombinant human ROCK-II residues 11-552) was purchased from Upstate Ltd., Dundee, UK. The peptide substrate, Fluorescein-AKRRRLSSLRA-COOH, was obtained from JPT Peptide Technologies, Berlin, Germany. Adenosine-5′-triphosphate (ATP), bovine serum albumine (BSA), dimethylsulphoxide (DMSO), 4-(2-Hydroxyethyl)piperazine-1-ethanesulfonic acid (Hepes), Brij-35 and dithiothreitol (DTT) were purchased from Sigma-Aldrich, Munich, Germany. Tris(hydroxymethyl)-aminomethane (Tris), magnesium chloride, NaOH, 1M HCl and EDTA were obtained from Merck Biosciences, Darmstadt, Germany. “Complete” protease inhibitor was from Roche Diagnostics, Mannheim, Germany.
Test compounds were diluted to the appropriate concentrations in buffer 1 (25 mM Tris-HCl, pH 7.4, 5 mM MgCl2, 2 mM DTT, 0.02% (w/v) BSA and 3% DMSO). The ROCK II enzyme was diluted to a concentration of 100 ng/ml in buffer 2 (25 mM Tris-HCl, pH 7.4, 5 mM MgCl2, 2 mM DTT and 0.02% (w/v) BSA). The peptide substrate and ATP were diluted to concentrations of 3 μM and 120 μM, respectively, in the buffer 2. Two μl of the compound solution were mixed with 2 μl of the diluted enzyme in a 384-well small volume microtiter plate (Greiner, Bio-One, Frickenhausen, Germany), and the kinase reaction was initiated by addition of 2 μl of the solution containing peptide substrate and ATP. After 60 min incubation at 32° C., the reaction was stopped by addition of 20 μl of a solution containing 100 mM Hepes-NaOH, pH 7.4, 0.015% (v/v) Brij-35, 45 mM EDTA and 0.227% chip coating reagent 1 (Caliper Lifescience Inc, Hopkinton, Mass.). Phosphorylation of the substrate peptide was then detected on a Caliper 3000 instrument essentially as described by Pommereau et al (J. Biomol. Screening 9(5), 409-416, 2004). Separation conditions were as follows: Pressure −1.3 psi, upstream voltage −1562 V, downstream voltage −500 V, sample sip time 200 ms. Positive controls (buffer 1 instead of compound) and negative controls (buffer 1 instead of compound and buffer 2 instead of ROCK II) were run in parallel on each plate.
The following products/compounds were tested in said assay by using the respective form (salt or free base) obtained as in the examples described above and the following activities were measured.

T1 sequence (O75116 11-552): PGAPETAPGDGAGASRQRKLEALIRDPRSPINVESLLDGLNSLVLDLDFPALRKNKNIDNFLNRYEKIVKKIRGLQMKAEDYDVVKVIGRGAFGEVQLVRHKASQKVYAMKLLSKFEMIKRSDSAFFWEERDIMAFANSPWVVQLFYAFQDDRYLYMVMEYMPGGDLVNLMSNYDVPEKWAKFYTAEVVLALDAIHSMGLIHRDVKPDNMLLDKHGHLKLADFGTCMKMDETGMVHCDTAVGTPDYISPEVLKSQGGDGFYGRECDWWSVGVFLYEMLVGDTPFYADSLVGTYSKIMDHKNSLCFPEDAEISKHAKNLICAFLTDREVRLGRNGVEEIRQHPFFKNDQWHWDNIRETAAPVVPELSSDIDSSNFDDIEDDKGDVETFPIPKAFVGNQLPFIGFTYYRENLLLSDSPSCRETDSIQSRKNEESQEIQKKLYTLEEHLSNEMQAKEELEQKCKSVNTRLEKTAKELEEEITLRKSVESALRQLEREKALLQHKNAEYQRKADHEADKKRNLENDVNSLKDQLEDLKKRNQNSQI

IC50 [nM]	Compound
≤ 1000	N[C@H]1CC[C@@H](Sc2cc3ccncc3cc2Cl)CC1 [Compound 61, cis-4-(7-Chloro-isoquinolin-6-ylsulfanyl)-cyclohexylamine]
1000 to 10000	CCN(CC)[C@H]1CC[C@@H](Nc2ccc3c(=O)[nH]ccc3c2)CC1 [Compound 44, 6-cis-(4-Diethyl-amino-cyclohexyl-amino)-2H-iso-quinolin-1-one]
≤ 1000	N[C@H]1CC[C@@H](Sc2cc3ccncc3cc2Br)CC1 [Compound 62, cis-4-(7-Bromo-isoquinolin-6-ylsulfanyl)-cyclohexylamine hydrochloride]
1000 to 10000	O=c1[nH]ccc2cc(N[C@H]3CC[C@@H](NCc4cccc(Cl)c4)CC3)ccc12 [Compound 50, 6-cis-[4-(3-Chloro-benzylamino)-cyclohexyl-amino]-2H-isoquinolin-1-one]
1000 to 10000	O=c1[nH]ccc2cc(N[C@H]3CC[C@@H](NCc4ccccc4)CC3)ccc12 [Compound 48, 6-cis-(4-Benzyl-amino-cyclohexyl-amino)-2H-iso-quinolin-1-one]
≤ 1000	N[C@H]1CC[C@@H](Sc2cc3cc[nH]c(=O)c3cc2Cl)CC1 [Compound 64, 6-cis-(4-Amino-cyclohexylsulfanyl)-7-chloro-2H-isoquinolin-1-one]
≤ 1000	O=c1[nH]ccc2cc(N[C@H]3CC[C@@H](NCC4CCNCC4)CC3)ccc12 [Compound 52, 6-cis-{4-[(Piperidin-4-ylmethyl)-amino]-cyclohexyl-amino}-2H-isoquinolin-1-one]
1000 to 10000	O=c1[nH]ccc2cc(N[C@H]3CC[C@@H](NCc4ccc(Cl)cc4)CC3)ccc12 [Compound 51, 6-cis-[4-(4-Chloro-benzylamino)-cyclohexyl-amino]-2H-isoquinolin-1-one]
1000 to 10000	CCCN(CCC)[C@H]1CC[C@@H](Nc2ccc3c(=O)[nH]ccc3c2)CC1 [Compound 46, 6-cis-(4-Dipropyl-amino-cyclohexyl-amino)-2H-iso-quinolin-1-one]
≤ 1000	N[C@H]1CCCC[C@H]1Nc1ccc2c(=O)[nH]ccc2c1 (relative stereo) [Compound 40, 6-cis-(2-Amino-cyclohexyl-amino)-2H-isoquinolin-1-one]
≤ 1000	N[C@H]1CC[C@H](Nc2ccc3c(=O)[nH]ccc3c2)CC1 [Compound 36, 6-trans-(4-Amino-cyclohexyl-amino)-2H-isoquinolin-1-one]
1000 to 10000	CC(C)N[C@H]1CC[C@@H](Nc2ccc3c(=O)[nH]ccc3c2)CC1 [Compound 49, 6-cis-(4-Isopropyl-amino-cyclohexyl-amino)-2H-iso-quinolin-1-one]
≤ 1000	NC1CCCC(Nc2ccc3c(=O)[nH]ccc3c2)C1 (centres unmarked) [Compound 41, 6-(3-Amino-cyclohexylamino)-2H-isoquinolin-1-one]
≤ 1000	CCCN[C@H]1CC[C@@H](Nc2ccc3c(=O)[nH]ccc3c2)CC1 [Compound 47, 6-cis-(4-Propyl-amino-cyclohexyl-amino)-2H-iso-quinolin-1-one]
≤ 1000	CCN[C@H]1CC[C@@H](Nc2ccc3c(=O)[nH]ccc3c2)CC1 [Compound 45, 6-cis-(4-ethylamino-cyclohexylamino)-2H-isoquinolin-1-one]
≤ 1000	O=c1[nH]ccc2cc(N[C@H]3CC[C@@H](NC4CC4)CC3)ccc12 [Compound 53, 6-cis-(4-Cyclopropyl-amino-cyclo-hexylamino)-2H-isoquinolin-1-one]
≤ 1000	O=c1[nH]ccc2cc(N[C@H]3CC[C@@H](N(C4CC4)C4CC4)CC3)ccc12 [Compound 54, 6-cis-(4-Dicyclo-propyl-amino-cyclohexyl-amino)-2H-isoquinolin-1-one]
